From patent publication US7960339B2, “Antimicrobial peptides” (Österreichische Akademie der Wissenschaften, priority 2006, dated 2011) come the findings set out here.

Peptide text beside a SMILES is read from it.

The test system of this test is C. neoformans ATCC 32045. It is filed as cell-based. Particulars: ATCC 32045, 72 h. As to the method: C. neoformans ATCC 32045 cultures were maintained on yeast medium (YM; Difco Laboratories, Detroit, Mich.) agar plates at 4° C. Prior to the assay, the cultures were grown on agar plates and incubated for 72 hrs at 26° C. Two colonies of these newly grown fungal cultures were then inoculated in 5 ml of 2×YM broth, vortexed, and diluted 10-fold in 2×YM broth, for an approximate final assay concentration of 1×105 to 5×10^5 CFU/ml. In 96-well tissue culture plates, fungal suspensions in 2×YM broth were added to the peptides dispensed at concentrations ranging from 1 mg/ml to 1 μg/ml derived from serial twofold dilutions in sterile water. The plates were then incubated for 72 hrs at 26° C. The relative percent growth of the fungi found for each test sample was determined by the optical density at 620 nm (OD620) by using a Titertek Multiskan Plus apparatus. […] The IC50 were calculated by using a sigmoidal curve-fitting software program (Graphpad Prism; ISI Software, San Diego, Calif.).

As for `CC[C@H](C)[C@H](NC(=O)[C@H](CCCNC(=N)N)NC(=O)[C@@H](NC(=O)[C@H](CC(N)=O)NC(=O)[C@H](CCCNC(=N)N)NC(=O)[C@H](CCC(N)=O)NC(=O)[C@H](Cc1c[nH]c2ccccc12)NC(=O)[C@@H](N)Cc1ccccc1)[C@@H](C)CC)C(=O)N[C@@H](CCCNC(=N)N)C(=O)N[C@@H](CCCNC(=N)N)C(N)=O` [VS1-13, FWQRNIRIRR-NH2] (H-FWQRNIRIRR-NH2; N-terminus assumed), the “average IC50” value came to 8 mg/L and the “average MIC” value was determined as 32 mg/L.
For `CC[C@H](C)[C@H](NC(=O)[C@H](CCCNC(=N)N)NC(=O)[C@@H](NC(=O)[C@H](CCCNC(=N)N)NC(=O)[C@@H](N)CCCNC(=N)N)[C@@H](C)CC)C(=O)N[C@@H](CC(N)=O)C(=O)N[C@@H](CCCNC(=N)N)C(=O)N[C@@H](CCC(N)=O)C(=O)N[C@@H](Cc1c[nH]c2ccccc12)C(=O)N[C@@H](Cc1ccccc1)C(N)=O` [VS1-14, RRIRINRQWF-NH2] (H-RRIRINRQWF-NH2; N-terminus assumed), the “average IC50” value came to 12 mg/L and the “average MIC” value amounted to 32 mg/L.
In the same order, the values of `CC[C@H](C)[C@H](NC(=O)[C@H](CCCNC(=N)N)NC(=O)[C@H](CCCCN)NC(=O)[C@H](Cc1c[nH]c2ccccc12)NC(=O)[C@@H](N)CCCNC(=N)N)C(=O)N[C@@H](CC(N)=O)C(=O)N[C@@H](CCCNC(=N)N)C(=O)N[C@@H](CCC(N)=O)C(=O)N[C@@H](Cc1c[nH]c2ccccc12)C(=O)N[C@@H](Cc1ccccc1)C(N)=O` [VS1-16, RWKRINRQWF-NH2] (H-RWKRINRQWF-NH2; N-terminus assumed) are 13 mg/L and 32 mg/L.
On the same counts, the results for `CC[C@H](C)[C@H](NC(=O)[C@H](CCCNC(=N)N)NC(=O)[C@H](CCCNC(=N)N)NC(=O)[C@H](CCC(N)=O)NC(=O)[C@H](Cc1c[nH]c2ccccc12)NC(=O)[C@@H](N)Cc1ccccc1)C(=O)N[C@@H](CCCNC(=N)N)C(=O)N[C@@H](CCCCN)C(=O)N[C@@H](Cc1c[nH]c2ccccc12)C(=O)N[C@@H](CCCNC(=N)N)C(N)=O` [VS1-17, FWQRRIRKWR-NH2] (H-FWQRRIRKWR-NH2; N-terminus assumed) are 5 mg/L and 32 mg/L.
In the same order, the values of `CC[C@H](C)[C@H](NC(=O)[C@H](CC(N)=O)NC(=O)[C@H](CCCNC(=N)N)NC(=O)[C@H](CCC(N)=O)NC(=O)[C@H](Cc1c[nH]c2ccccc12)NC(=O)[C@H](Cc1ccccc1)NC(=O)[C@@H]1CCCN1)C(=O)N[C@@H](CCCNC(=N)N)C(=O)N[C@@H](CCCCN)C(=O)N[C@@H](Cc1c[nH]c2ccccc12)C(=O)N[C@@H](CCCNC(=N)N)C(N)=O` [VS1-19, PFWQRNIRKWR-NH2] (H-PFWQRNIRKWR-NH2; N-terminus assumed) are 3 mg/L and 8 mg/L.
For `CC[C@H](C)[C@H](NC(=O)[C@H](CC(N)=O)NC(=O)[C@H](CCCNC(=N)N)NC(=O)[C@H](Cc1c[nH]c2ccccc12)NC(=O)[C@@H](N)Cc1ccccc1)C(=O)N[C@@H](CCCNC(=N)N)C(=O)N[C@@H](CCCCN)C(=O)N[C@@H](Cc1c[nH]c2ccccc12)C(=O)N[C@@H](CCCNC(=N)N)C(N)=O` [VS1-20, FWRNIRKWR-NH2] (H-FWRNIRKWR-NH2; N-terminus assumed), the “average IC50” value was determined as 4 mg/L and the “average MIC” value is 16 mg/L.
Consider `CC[C@H](C)[C@H](NC(=O)[C@H](CCCNC(=N)N)NC(=O)[C@H](Cc1c[nH]c2ccccc12)NC(=O)[C@@H](N)Cc1ccccc1)C(=O)N[C@@H](CCCNC(=N)N)C(=O)N[C@@H](CCCCN)C(=O)N[C@@H](Cc1c[nH]c2ccccc12)C(=O)N[C@@H](CCCNC(=N)N)C(N)=O` [VS1-21, FWRIRKWR-NH2] (H-FWRIRKWR-NH2; N-terminus assumed), for which the “average IC50” value is 4 mg/L and the “average MIC” value was 16 mg/L.
In the same order, the values of `CC[C@H](C)[C@H](NC(=O)[C@H](CCCNC(=N)N)NC(=O)[C@@H](NC(=O)[C@H](CCCNC(=N)N)NC(=O)[C@H](Cc1c[nH]c2ccccc12)NC(=O)[C@H](Cc1ccccc1)NC(=O)[C@@H]1CCCN1)[C@@H](C)CC)C(=O)N[C@@H](CCCNC(=N)N)C(=O)N[C@@H](CCCNC(=N)N)C(=O)N[C@@H](CC(=O)O)C(N)=O` [VS1-23, PFWRIRIRRD-NH2] (H-PFWRIRIRRD-NH2; N-terminus assumed) are 4 mg/L and 8 mg/L.
In the same order, the values of `CC[C@H](C)[C@H](NC(=O)[C@H](CCCNC(=N)N)NC(=O)[C@@H](NC(=O)[C@H](CCCNC(=N)N)NC(=O)[C@H](Cc1c[nH]c2ccccc12)NC(=O)[C@H](Cc1ccccc1)NC(=O)[C@H](Cc1ccccc1)NC(=O)[C@@H]1CCCN1)[C@@H](C)CC)C(=O)N[C@@H](CCCNC(=N)N)C(=O)N[C@@H](CCCNC(=N)N)C(N)=O` [VS1-24, PFFWRIRIRR-NH2] (H-PFFWRIRIRR-NH2; N-terminus assumed) are 3 mg/L and 8 mg/L.
On the same counts, the results for `CC[C@H](C)[C@H](NC(=O)[C@H](CCCNC(=N)N)NC(=O)[C@H](CCC(N)=O)NC(=O)[C@H](CCCNC(=N)N)NC(=O)[C@H](Cc1c[nH]c2ccccc12)NC(=O)[C@H](Cc1ccccc1)NC(=O)[C@@H]1CCCN1)C(=O)N[C@@H](CCCNC(=N)N)C(=O)N[C@@H](CCCNC(=N)N)C(N)=O` [VS1-25, PFWRQRIRR-NH2] (H-PFWRQRIRR-NH2; N-terminus assumed) are 6 mg/L and 32 mg/L.
Turning to `CC[C@H](C)[C@H](NC(=O)[C@H](CCC(N)=O)NC(=O)[C@H](CCCNC(=N)N)NC(=O)[C@H](CCCNC(=N)N)NC(=O)[C@H](Cc1c[nH]c2ccccc12)NC(=O)[C@H](Cc1ccccc1)NC(=O)[C@@H]1CCCN1)C(=O)N[C@@H](CCCNC(=N)N)C(=O)N[C@@H](CCCNC(=N)N)C(N)=O` [VS1-26, PFWRRQIRR-NH2] (H-PFWRRQIRR-NH2; N-terminus assumed), the “average IC50” value stood at 6 mg/L and the “average MIC” value turned out to be 32 mg/L.
On the same counts, the results for `CC[C@H](C)[C@H](NC(=O)[C@H](CCCNC(=N)N)NC(=O)[C@H](C)NC(=O)[C@H](CCCNC(=N)N)NC(=O)[C@H](Cc1c[nH]c2ccccc12)NC(=O)[C@H](Cc1ccccc1)NC(=O)[C@@H]1CCCN1)C(=O)N[C@@H](CCCNC(=N)N)C(=O)N[C@@H](CCCNC(=N)N)C(N)=O` [VS1-27, PFWRARIRR-NH2] (H-PFWRARIRR-NH2; N-terminus assumed) are 8 mg/L and 32 mg/L.
In the case of `CC[C@H](C)[C@H](NC(=O)[C@H](CCCNC(=N)N)NC(=O)[C@H](CCCCN)NC(=O)[C@H](CCCNC(=N)N)NC(=O)[C@H](Cc1c[nH]c2ccccc12)NC(=O)[C@H](Cc1ccccc1)NC(=O)[C@@H]1CCCN1)C(=O)N[C@@H](CCCNC(=N)N)C(=O)N[C@@H](CCCNC(=N)N)C(N)=O` [VS1-28, PFWRKRIRR-NH2] (H-PFWRKRIRR-NH2; N-terminus assumed), the “average IC50” value was 8 mg/L and the “average MIC” value was 32 mg/L.
Regarding `CC(C)C[C@H](NC(=O)[C@H](CCCNC(=N)N)NC(=O)[C@H](CCCCN)NC(=O)[C@H](CCCNC(=N)N)NC(=O)[C@H](Cc1c[nH]c2ccccc12)NC(=O)[C@H](Cc1ccccc1)NC(=O)[C@@H]1CCCN1)C(=O)N[C@@H](CCCNC(=N)N)C(=O)N[C@@H](CCCNC(=N)N)C(N)=O` [VS1-29, PFWRKRLRR-NH2] (H-PFWRKRLRR-NH2; N-terminus assumed), the “average IC50” value stood at 9 mg/L and the “average MIC” value is 32 mg/L.
In the case of `CC(C)C[C@H](NC(=O)[C@H](CCCCN)NC(=O)[C@H](CCCCN)NC(=O)[C@H](CCCNC(=N)N)NC(=O)[C@H](Cc1c[nH]c2ccccc12)NC(=O)[C@H](Cc1ccccc1)NC(=O)[C@@H]1CCCN1)C(=O)N[C@@H](CCCCN)C(=O)N[C@@H](CCCNC(=N)N)C(N)=O` [VS1-30, PFWRKKLKR-NH2] (H-PFWRKKLKR-NH2; N-terminus assumed), the “average IC50” value is 10 mg/L and the “average MIC” value was 32 mg/L.
On the same counts, the results for `N=C(N)NCCC[C@H](NC(=O)[C@H](CCCNC(=N)N)NC(=O)[C@H](Cc1c[nH]c2ccccc12)NC(=O)[C@H](CCCNC(=N)N)NC(=O)[C@H](CCCCN)NC(=O)[C@H](CCCNC(=N)N)NC(=O)[C@H](Cc1c[nH]c2ccccc12)NC(=O)[C@H](Cc1ccccc1)NC(=O)[C@@H]1CCCN1)C(N)=O` [VS1-31, PFWRKRWRR-NH2] (H-PFWRKRWRR-NH2; N-terminus assumed) are 8 mg/L and 32 mg/L.
On the same counts, the results for `CC[C@H](C)[C@H](NC(=O)[C@H](CCCNC(=N)N)NC(=O)[C@H](CCCNC(=N)N)NC(=O)[C@H](CCCNC(=N)N)NC(=O)[C@H](Cc1c[nH]c2ccccc12)NC(=O)[C@H](Cc1ccccc1)NC(=O)[C@@H]1CCCN1)C(=O)N[C@@H](CCCNC(=N)N)C(=O)N[C@@H](CCCNC(=N)N)C(N)=O` [VS1-32, PFWRRRIRR-NH2] (H-PFWRRRIRR-NH2; N-terminus assumed) are 9 mg/L and 32 mg/L.
On the same counts, the results for `N=C(N)NCCC[C@H](NC(=O)[C@H](CCCNC(=N)N)NC(=O)[C@H](Cc1c[nH]c2ccccc12)NC(=O)[C@H](CCCNC(=N)N)NC(=O)[C@H](CCCNC(=N)N)NC(=O)[C@H](CCCNC(=N)N)NC(=O)[C@H](Cc1c[nH]c2ccccc12)NC(=O)[C@H](Cc1ccccc1)NC(=O)[C@@H]1CCCN1)C(N)=O` [VS1-33, PFWRRRWRR-NH2] (H-PFWRRRWRR-NH2; N-terminus assumed) are 9 mg/L and 32 mg/L.
